Measured values as given in patent US10189803B2, “Synthesis of therapeutic and diagnostic drugs centered on regioselective and stereoselective ring opening of aziridinium ions” (ILLINOIS INSTITUTE OF TECHNOLOGY, priority 2008, dated 2019).

Tests used:
Hela cells = test: Antiproliferative activity, MTS assay, HeLa cells; assay type: cell-based, Human; conditions: Homo sapiens; 72 h incubation, MTS
Procedure: (§1) Cell culture Human cervix HeLa cell line was obtained from ATCC (Rockville, Md.) and cultured in minimum essential medium (MEM) with L-glutamine (2 mM), Earle's BSS and sodium bicarbonate (1.5 g/L), supplemented with 10% fetal bovine serum (FBS), non-essential amino acids (0.1 mM), sodium pyruvate (1 mM) and antibiotic/antimycotic solution in a humidified atmosphere with 5% CO2 at 37° C. […] Lung fibroblast MRC-5 cell line was obtained from ATCC (Rockville, Md.) and cultured in ATCC formulated EMEM, supplemented with 10% fetal bovine serum (FBS) in a humidified atmosphere with 5% CO2 at 37° C.
(§2) Antiproliferative Activity. Cells were seeded onto 96-well plate at density of 2,000 cells for Hela cells or 5,000 cells for HT29 cells or 5,000 cells for MRC-5 per well in 0.1 mL complete medium and allowed to attach for 24 h. Varying concentrations of the test compounds in the final volume of 0.1 mL complete medium were then added in at least five series dilutions and incubated for 72 h. To measure cell proliferation, the Cell Titer 96 aqueous nonreactive cell proliferation assay (Promega Life Sciences, Madison, Wis.) was used according to the manufacturer's instructions. Briefly, MTS (2 mg/mL) and PMS (0.92 mg/ml) were mixed in a ratio of 20:1. An aliquot (20 μL) of the MTS/PMS mixture was added into each well, and the plate was incubated for 3 h at 37° C. Optical absorbance at 490 nm was then recorded with an enzyme-linked immunosorbent assay (ELISA) microtiter plate reader (Biotek). Each experiment was done at least in triplicate. Antiproliferative activity of the test compounds was expressed as the fraction of optical densities of treated the cells relative to the untreated solvent controls.^31 The data were plotted in GraphPad Prizm 3.0. Nonlinear regression analysis was used to determine IC50 values.
(§3) Cell culture. Human cervix HeLa cell line was obtained from ATCC (Rockville, Md.) and cultured in minimum essential medium (MEM) with L-glutamine (2 mM), Earle's BSS and sodium bicarbonate (1.5 g/L), supplemented with 10% fetal bovine serum (FBS), non-essential amino acids (0.1 mM), sodium pyruvate (1 mM) and antibiotic/antimycotic solution in a humidified atmosphere with 5% CO2 at 37° C.
as §2, with “activity.” for “Activity.”, “cells” for “cells or 5,000 cells for MRC-5”, “controls.” for “controls.^31”

HT29 cells = test: Antiproliferative activity, MTS assay, HT29 cells; assay type: cell-based, Human; conditions: Homo sapiens, HT-29, 72 h incubation
Procedure: as §1, §2, §3
as §2, with “activity.” for “Activity.”, “cells” for “cells or 5,000 cells for MRC-5”, “controls.” for “controls.^31”

[1] = TEM measurement of self-assembled micelles; assay type: physicochemical; conditions: aqueous solution
Excerpt: Amphifacial cholic acid is a good targeting moiety, and its conjugation to MR contrast agent is expected to form helical globular aggregates with a favorable pharmacokinetic and relaxivity profile. In FIG. 41, cholic acid was converted to an activated amide 1, which was further reacted with a functionalized NE3TA (2) containing an amino group to provide Compound 3. The t-butyl group of Compound 3 was removed by treatment with 4M HCl in 1,4-dioxane to provide CA-NE3TA (4). […] The Gd(III) complex of CA-NE3TA was prepared as described above. Gd(CA-NE3TA) self-assembles into nano-sized micells as evidenced by TEM measurement (˜10 nm, FIG. 24). […] Aggregation of Gd(CA-NE3TA) as evidenced by TEM images is proposed to result from heating during the complexation reaction and/or gadolinium induced cross linking. T1 relaxivity of Gd(CA-NE3TA) in aqueous solution (0.2 mM) was measured to 10.85 mM^−1 s^−1. […] This increase in relaxivity may be a result of slower molecular rotation due to aggregation of the complex as evidenced by the TEM image.
TEM measurement. Stock solutions of compounds CA-NE3TA and Gd(CA-NE3TA) were prepared in 18 MΩ H2O and diluted to the final concentrations of CA-NE3TA (10 μM, pH=5) and Gd(CA-NE3TA) (100 μM or 10 μM, pH=7). In triplicate, a 5 μL aliquot of CA-NE3TA solution was placed on a gold-coated grid (300 mesh, formvar support film, Cat #FF300-Au, Electron Microscopy Sciences, PA). The sample on the grid was air-dried for 5-10 min after each deposition. The grid was air-dried overnight, transferred into a desiccator, and further dried in vacuo for 1.5 days. The sample of Gd(CA-NE3TA) (10 μM) was prepared as described above. […]
TEM images of CDCA-NE3TA indicate that the hydrophobic bile acid conjugated to NE3TA forms discrete semi-square micelles in nanometer size (˜15-60 nm, FIG. 29). […] Aza cholic acid 10 was prepared starting from the readily available cholic acid according to the literature. […]

[2] = T1 relaxivity of Gd(III) complexes (Bruker mq60 NMR analyzer); assay type: physicochemical; conditions: aqueous solution (0.2 mM)
Procedure: Gd(NE3TA) and Gd(NE3TA-Bn) were synthesized by reacting GdCl3 with NE3TA and NE3TA-Bn, respectively. NE3TA or NE3TA-Bn were mixed with GdCl3 in a molar ratio of 1 to 0.9, and the resulting mixture at pH 7 was heated to 90° C. and stirred until no free Gd(III) ions were detected using an ArsenazoIII (AAIII) assay. Relaxivity of the aqueous […] complexes (pH 7) was measured on a Bruker MQ60 NMR analyzer, and the concentration of the Gd(III) complexes was measured by ICP-MS. […] NE3TA was successfully conjugated with the most common bile acid, cholic acid (FIG. 41).
(§4) Relaxivity Measurements. Relaxivity measurements were acquired by taking the slope of a plot of 1/T1 (s^−1) versus concentration (mM). The longitudinal water proton relaxation times (T1) were determined using a Bruker mq60 NMR (Bruker Canada, Milton, ON, Canada) analyzer operating at 59.97 MHz and 37° C. The agent was added to Millipore water and serially diluted by 0.5 to give a series of 5 concentrations (500 μL total volume) for each relaxivity trial. The T1 was determined using an inversion recovery pulse sequence with 10 different pulse separations per sample, 4 repetitions per echo time, phase cycling, and a recycle delay that is ≥5 times the T1 of each given sample. All curves were fit using a monoexponential curve fitting formula.
Relaxivity of the aqueous Gd(III) complexes (˜pH 7) were measured on a Bruker MQ60 NMR analyzer, and the concentration of the Gd(III) complexes were measured by ICP-MS. […] As mentioned above, the on and off binding to Gd(III) of one of the pendant coordinates would have resulted enhanced relaxivity of Gd(C-NETA) compared to Gd(C-DOTA). Among the evaluated Gd(III) complexes, Gd(C-NE3TA) gives the highest T1 relaxivity at 60 MHz, probably due to increase in q. The relaxation rates for the Gd(III) chelates are dominated by the inner-sphere dipolar coupling between the coordinated water molecule and the paramagnetic Gd(III). The measured relaxivities arise from the exchange between the coordinated water molecule and the surrounding water molecules in solution. […] No indication of Gd(III) dissociation is evident from the relaxivity data, which is in agreement with the in vitro serum stability and in vivo biodistribution studies.
as §4, with “The T1 relaxivity was determined” for “The T1 was determined”

| Compound | IC50 (Hela cells) [µM] | IC50 (HT29 cells) [µM] | micelle size (TEM) [1] | T1 relaxivity [2] [mM⁻¹ s⁻¹] |
| --- | --- | --- | --- | --- |
| CC(CCC(=O)Nc1ccc(CC(CN2CCN(CC(=O)O)CCN(CC(=O)O)CC2)NCC(=O)O)cc1)C1CCC2C3C(O)CC4CC(O)CCC4(C)C3CCC12C (centres unmarked) [CDCA-NE3TA, [4-Carboxymethyl-7-(2-(carboxymethyl-amino)-3-{4-[4-(3,7-dihydroxy-10,13-dimethylhexadecahydro-cyclopenta[a]phenanthren-17-yl)-pentanoylamino]-phenyl}-propyl)-[1,4,7]triazonan-1-yl]-acetic acid] | 24.6 ± 1 | 15.5 ± 3.2 | 15-60 nm |  |
| CC(CCC(=O)Nc1ccc(CC(CN2CCN(CC(=O)O)CCN(CC(=O)O)CC2)NCC(=O)O)cc1)C1CCC2C3C(O)CC4CC(O)CCC4(C)C3CC(O)C12C.[Gd] (centres unmarked) [Gd(CA-NE3TA)] |  |  | ~10 nm | 10.85 |
| CC(CCC(=O)Nc1ccc(CC(CN2CCN(CC(=O)O)CCN(CC(=O)O)CC2)NCC(=O)O)cc1)C1CCC2C3C(O)CC4CC(O)CCC4(C)C3CC(O)C12C (centres unmarked) [CA-NE3TA, [4-Carboxymethyl-7-(2-(carboxymethyl-amino)-3-{4-[4-(3,7,12-trihydroxy-10,13-dimethyl-hexadecahydro-cyclopenta[a]phenanthren-17-yl)-pentanoylamino]-phenyl}-propyl)-[1,4,7]triazonan-1-yl]-acetic acid] | 24 ± 2.7 | 8.3 ± 2.4 | 10-50 nm |  |
